Reference: patent publication US20210341448A1, “SCREENING METHOD FOR THERAPEUTIC DRUG OR PROPHYLACTIC DRUG FOR TAUOPATHY AND DIAGNOSTIC METHOD FOR TAUOPATHY” (National Center for Geriatrics and Gerontology, priority 2018, published 2021)

Experiments:
membrane protein (NMDAR) = experiment: Membrane protein-based sandwich ELISA; format: binding, mouse; details: data not shown
Experimental: Pellets of the membrane protein obtained from tau knockout brain by the procedure of the above (7-1) were dissolved in 2% cholic acid or 1% deoxycholate/buffer (50 mM of HEPES, 150 mM of NaCl, pH 7.4), and the solution was centrifuged at 4° C., 150,000×g for 30 minutes to thereby collect the supernatant to use as a membrane protein solution. The obtained membrane protein solution was applied to an ELISA plate (Sumitomo Bakelite Co., Ltd., MS-8596F) and incubated at 4° C. for 60 minutes to thereby coat the plate with the membrane protein. After washing with wash solution (0.004 to 0.008% MNG-3, 50 mM of HEPES, pH 7.4), blocking was done by adding 1% FBS-containing wash solution and incubating at 4° C. for 60 minutes. The solvent of the HT-tau oligomer sample prepared in the above (1-4) was replaced with the wash solution using a protein concentrator (10K MWCO, Pierce, 88526) to thereby prepare a tau oligomer solution of 10^−16 to 10^−6 g/ml. These solutions were applied to the plate and incubated at 4° C. for 15 to 60 minutes. Then, the plate was washed thoroughly with the wash solution and a 5% skim milk-containing wash solution was added, followed by incubating at room temperature for 30 minutes to thereby block the protein. After washing using the wash solution, an anti-HaloTag antibody/wash solution (1:1000 dilution) was added and incubated at room temperature for 30 minutes. Subsequently, the plate was washed with the wash solution, an HRP-labelled secondary antibody/wash solution (Invitrogen, A27036) (1:5000 dilution) was added and incubated at room temperature for 30 minutes. Then, chromogenic reactions were carried out using an Ultra TMB solution (Thermo Fisher Scientific, 34028) to detect the tau oligomers bound to the membrane protein.

NT2-N cells = experiment: Adhesion activity of tau oligomers to NT2-N cell surface (fluorescence microscopy); format: cell-based, human; details: on ice 30 minutes, no membrane permeabilization
Experimental: Cal-520 AM was loaded to the NT2-N cells prepared in the above (4-1) by the procedure of the above (4-2), exposed to the tau oligomer sample (10 μl/ml) prepared in the above (1-3) and incubated on ice for 30 minutes. Subsequently, the cells were washed 3 times with DPBS(−) (137 mM of NaCl, 2.68 mM of KCl, 1.47 mM of KH2PO4, 8.06 mM of Na2HPO4) and fixed with 4% paraformaldehyde at room temperature for 15 minutes. After thorough washing with DPBS(−) (10 minutes×3 times), blocking was done with 1% BSA and 3% donkey serum/DPBS for 30 minutes. Then, the anti-phosphorylated tau antibody (anti-pTau (paired pS409, pS412, pS413), AnaSpec, #AS-55416) (1:1500 dilution) as the primary antibody was reacted at room temperature for 1 hour, and Alexa594-labelled anti-mouse IgG (Jackson Immuno Research, #711-585-152) (1:1500 dilution) as a secondary antibody was reacted at room temperature for 30 minutes, to thereby carry out immunostaining. The stained cells were observed using a fluorescence microscope (BZ-X710, Keyence Corporation).
The HT-tau oligomer sample prepared in the above (1-4), instead of the tau oligomer sample prepared in the above (1-3), was exposed to the NT2-N cells by the same procedure as in the above (5-1). After thorough washing, fluorescence microscopic observation was carried out.

NMDAR complex = molecular target: T1, NMDAR complex (Mus musculus, UniProt P35436+P35438+Q01097); experiment: Far-western blot of HT-tau oligomer on NMDAR complex; format: binding; details: anti-HaloTag detection
T1 construct: from tissue
T1 sequence (P35436 23-1464, other chains not shown): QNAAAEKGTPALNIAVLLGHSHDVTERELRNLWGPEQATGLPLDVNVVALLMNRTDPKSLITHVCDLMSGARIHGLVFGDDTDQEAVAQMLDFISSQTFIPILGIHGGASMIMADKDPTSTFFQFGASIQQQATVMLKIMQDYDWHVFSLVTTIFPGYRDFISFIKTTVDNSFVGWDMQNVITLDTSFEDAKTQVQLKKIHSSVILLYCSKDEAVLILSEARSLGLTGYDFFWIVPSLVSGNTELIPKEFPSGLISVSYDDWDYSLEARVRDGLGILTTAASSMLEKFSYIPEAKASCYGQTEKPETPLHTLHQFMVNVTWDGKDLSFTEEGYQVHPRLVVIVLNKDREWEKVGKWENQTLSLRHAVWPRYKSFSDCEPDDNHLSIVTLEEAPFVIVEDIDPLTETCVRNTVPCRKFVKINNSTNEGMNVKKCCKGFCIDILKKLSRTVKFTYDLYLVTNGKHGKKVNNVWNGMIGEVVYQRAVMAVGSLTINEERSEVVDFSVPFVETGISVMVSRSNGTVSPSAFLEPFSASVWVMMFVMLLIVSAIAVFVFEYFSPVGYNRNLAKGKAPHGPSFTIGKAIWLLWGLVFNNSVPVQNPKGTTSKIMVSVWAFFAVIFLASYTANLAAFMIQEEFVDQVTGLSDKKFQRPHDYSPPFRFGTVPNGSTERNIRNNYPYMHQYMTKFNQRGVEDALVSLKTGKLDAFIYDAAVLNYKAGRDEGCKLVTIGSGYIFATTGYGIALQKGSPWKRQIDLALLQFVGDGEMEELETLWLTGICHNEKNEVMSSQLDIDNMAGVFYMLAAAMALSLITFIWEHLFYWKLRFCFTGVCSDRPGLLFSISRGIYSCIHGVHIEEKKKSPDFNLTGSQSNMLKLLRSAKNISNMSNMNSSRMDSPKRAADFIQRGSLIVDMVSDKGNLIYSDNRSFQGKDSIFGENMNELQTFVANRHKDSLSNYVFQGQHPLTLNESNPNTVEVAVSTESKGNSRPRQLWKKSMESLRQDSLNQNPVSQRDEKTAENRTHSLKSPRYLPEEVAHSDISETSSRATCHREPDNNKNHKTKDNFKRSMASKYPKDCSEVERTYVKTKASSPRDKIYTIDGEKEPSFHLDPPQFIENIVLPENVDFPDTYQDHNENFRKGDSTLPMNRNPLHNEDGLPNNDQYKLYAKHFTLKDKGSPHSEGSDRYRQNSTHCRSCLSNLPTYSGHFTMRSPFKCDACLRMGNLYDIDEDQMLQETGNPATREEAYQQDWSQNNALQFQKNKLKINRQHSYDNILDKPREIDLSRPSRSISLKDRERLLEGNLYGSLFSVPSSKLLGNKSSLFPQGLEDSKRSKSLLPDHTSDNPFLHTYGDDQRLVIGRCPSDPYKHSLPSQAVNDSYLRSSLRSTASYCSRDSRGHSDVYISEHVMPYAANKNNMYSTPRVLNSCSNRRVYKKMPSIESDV
T1 sequence (Q01097 27-1482, other chains not shown): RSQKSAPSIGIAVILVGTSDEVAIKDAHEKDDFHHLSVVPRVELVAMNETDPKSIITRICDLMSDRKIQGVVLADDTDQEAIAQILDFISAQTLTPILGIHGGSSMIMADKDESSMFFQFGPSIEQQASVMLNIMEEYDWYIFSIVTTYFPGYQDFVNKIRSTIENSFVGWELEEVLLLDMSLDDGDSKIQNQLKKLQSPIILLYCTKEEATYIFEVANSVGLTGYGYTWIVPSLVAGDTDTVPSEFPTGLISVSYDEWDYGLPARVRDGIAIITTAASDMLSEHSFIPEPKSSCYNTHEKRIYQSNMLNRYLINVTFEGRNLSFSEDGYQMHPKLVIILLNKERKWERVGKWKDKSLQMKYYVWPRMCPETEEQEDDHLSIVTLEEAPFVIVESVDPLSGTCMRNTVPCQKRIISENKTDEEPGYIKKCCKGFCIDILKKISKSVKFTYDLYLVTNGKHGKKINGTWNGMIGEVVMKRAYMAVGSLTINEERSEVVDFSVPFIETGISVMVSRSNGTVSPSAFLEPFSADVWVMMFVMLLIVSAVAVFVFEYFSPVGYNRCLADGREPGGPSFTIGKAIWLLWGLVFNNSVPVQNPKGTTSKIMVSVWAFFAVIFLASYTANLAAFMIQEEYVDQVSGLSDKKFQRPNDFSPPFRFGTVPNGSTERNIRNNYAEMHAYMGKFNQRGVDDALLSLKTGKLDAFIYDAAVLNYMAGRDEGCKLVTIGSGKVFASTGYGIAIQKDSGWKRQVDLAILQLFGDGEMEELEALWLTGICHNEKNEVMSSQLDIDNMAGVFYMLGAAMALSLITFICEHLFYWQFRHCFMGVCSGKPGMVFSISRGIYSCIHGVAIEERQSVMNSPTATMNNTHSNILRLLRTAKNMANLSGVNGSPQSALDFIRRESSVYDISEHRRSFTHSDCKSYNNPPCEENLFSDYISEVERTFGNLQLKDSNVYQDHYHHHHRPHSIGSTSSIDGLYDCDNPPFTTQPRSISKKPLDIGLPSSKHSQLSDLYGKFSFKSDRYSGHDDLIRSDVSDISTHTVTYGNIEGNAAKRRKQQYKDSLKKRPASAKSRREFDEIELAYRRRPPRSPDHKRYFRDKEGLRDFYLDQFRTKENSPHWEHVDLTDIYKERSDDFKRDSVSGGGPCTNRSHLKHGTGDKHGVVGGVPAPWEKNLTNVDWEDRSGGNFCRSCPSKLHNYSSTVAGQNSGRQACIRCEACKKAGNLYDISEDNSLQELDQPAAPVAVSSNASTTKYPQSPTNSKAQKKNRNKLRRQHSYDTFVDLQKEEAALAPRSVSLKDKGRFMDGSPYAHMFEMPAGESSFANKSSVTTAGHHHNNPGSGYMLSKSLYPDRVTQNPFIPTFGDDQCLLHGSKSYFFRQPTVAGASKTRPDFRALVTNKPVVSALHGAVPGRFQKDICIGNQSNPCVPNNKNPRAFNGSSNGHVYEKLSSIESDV
Source text: The membrane protein prepared by the procedure of the above (7-1) was applied to blue native PAGE (NativePAGE™ 3-12% Bis-Tris Protein Gel (Thermo Fisher Scientific, #BN1003BOX); NativePAGE™ Sample Prep Kit (Thermo Fisher Scientific, #BN2008); and NativePAGE™ Running Buffer Kit (Thermo Fisher Scientific, #BN2007) were used) to thereby obtain crude purified NMDAR (complex of a NMDAR4 tetramer and scaffolding proteins such as PSD95, hereinafter simply described as “NMDAR complex”). The NMDAR complex was transferred from the gel after electrophoresis to PVDF membrane (Merck Millipore, #IPVH00010) (transcription buffer: 25 mM of Tris, 192 mM of glycine, 0.1% SDS, 10% Methanol, pH 8.0). […] Subsequently, the membrane was washed, and the tau oligomer adsorbed onto the PVDF membrane was detected by an anti-HaloTag antibody (Promega Corporation, #G928A) (1:1500 dilution) and an HRP-labelled secondary antibody (Jackson Immuno Research, #111-035-144). Additionally, in a replication experiment carried out in parallel, the NMDAR complex was detected by the same procedure without the exposing step to the tau oligomer sample and using an anti-NR1 antibody (Merck Millipore, #MAB363) (1:2000 dilution), instead of the anti-HaloTag antibody.

NMDAR [1] = molecular target: T2, NMDAR (Homo sapiens, UniProt Q05586); experiment: Measurement of calcium influx through NMDAR into NT2-N cells; format: cell-based; details: Cal-520, NT2-N cells, antagonist 50 μM
T2 construct: endogenous in cells; host or cells: NT2-N neurons differentiated from NTERA-2 cl.D1 [NT2/D1] cells (ATCC CRL-1973)
Experimental: Cultured neurons expressing NMDARs retaining physiological functions were prepared by the following procedure to evaluate the NMDAR activation ability of the tau oligomer. The NTERA-2 cl.D1[NT2/D1] cells (ATCC CRL-1973) (hereinafter described as “NT2 cell”), which are derived from a human pluripotent embryonic cancer, were adhesively cultured on 10-cm plastic dish in maintenance culture medium (high glucose DMEM (Sigma-Aldrich, D6429), 10% FBS, 100 U/ml penicillin/streptomycin) under the conditions of 37° C. and 5% CO2 for 3 to 4 days until the confluency stage was attained. The NT2 cells were detached using Accutase (Innovative Cell Technologies, #AT104), were passaged, and were maintained over a period of 50 days. The medium was replaced 3 times a week.
The maintenance-cultured NT2 cells were dispersed in a low attachment petri dish (STAR SDish9015, RIKAKEN CO., LTD.) in a concentration of 1.5×10^6 to 2.5×10^6/dish, suspension-cultured under the conditions of 37° C. and 5% CO2 on a shaker (100 rpm), and 1 day later were induced to differentiate by adding 1 μM of all-trans-retinoic acid (abcam), to thereby form spheroids. 14 days later, the spheroids were collected, seeded in a 10-cm dish coated with 5 μg/ml of poly-D-lysin (PDL) (Sigma-Aldrich)/Laminin (LAM) (iMatrix-511, Nippi Inc.) and adhesively cultured under the conditions of 37° C. and 5% CO2. From the following day, the culture was carried out by adding 3 kinds of cell division inhibitors (10 μM of uridine, 10 μM of floxuridine, and 1 μM of AraC). […]
For analysis, 5 to 10 regions of the visual field of the NT2-N cells positioned in the system were manually set and the fluorescence intensities were recorded for each region, for Cal-520, every 1 minute for 1 hour continuously at excitation wavelength 480 nm/fluorescence emission wavelength 520 nm, and for Fluo-8, every 2 seconds for 5 minutes continuously at excitation wavelength 480 nm/fluorescence emission wavelength 520 nm. […]

NMDA receptor = experiment: NMDAR-based sandwich ELISA; format: binding, mouse
NMDAR [2] = experiment: Dot blot of gel-filtered tau oligomer fractions on NMDAR-containing membrane protein; format: binding, mouse; details: fractions 7 and 8 compared with fractions 6, 9 and 10
Experimental: The membrane protein solution prepared by the procedure of the above (7-1) was diluted 16-fold with the above wash buffer and was spotted (1.5 μl/spot) on a nitrocellulose membrane. Then, the membrane was thoroughly dried to thereby obtain a nitrocellulose membrane on which the NMDAR-containing membrane protein was immobilized. On the other hand, a reaction solution before ultracentrifugation to be obtained in the process of preparing the HT-tau oligomer sample of the above (1-4) was fractionated using a gel filtration column (Superdex 200 10/300 GL column, GE Healthcare) (flow rate 0.5 ml/min, fractionated by 1 ml) to thereby obtain tau oligomer fractions in various sizes. Each of the obtained tau oligomer fractions was exposed to the nitrocellulose membrane on which the NMDAR-containing membrane protein was immobilized, to thereby detect the tau oligomers adsorbed onto the nitrocellulose membrane in the same manner as the detection procedure of tau oligomer in the above (7-2).

N[C@@H](CCC(=O)O)C(=O)O [glutamate, reference compound]
binding of the tau oligomer at low concentrations in the presence of NMDAR ligand (membrane protein (NMDAR)): reduced

HT-tau oligomer: tau oligomer prepared from tau monomer and HaloTag-fused tau monomer mixed in a ratio of 4:1
adhesion to the cell surface (NT2-N cells): patchy pattern of fluorescence was observed | interaction with NMDAR complex (around 800 kDa and 1100 kDa) (NMDAR complex): interacted with both of them

NC(CCCP(=O)(O)O)C(=O)O (stereo not shown) [APS, 2-amino-5-phosphonopentanoic acid, reference compound]
increase of the intracellular calcium concentration induced by the tau oligomer, in presence of antagonist (NMDAR [1]): lost

conantokin-G: a peptide blocking a ligand-binding site of the NMDA receptor (GEEELQENQELIREKSN) [reference compound]
effect on binding of the tau oligomer to the NMDA receptor (NMDA receptor): inhibited

LMW TauO: comparatively low-molecular-weight tau oligomers contained in gel filtration fractions 7 and 8
binding activity to NMDAR (NMDAR [2]): strong binding activity

NCC(=O)O [glycine, reference compound]
binding of the tau oligomer at low concentrations in the presence of NMDAR ligand (membrane protein (NMDAR)): reduced
